Reference: patent publication US10202658B2, “Methods for determining hypersusceptibility of HIV-1 to non-nucleoside reverse transcriptase inhibitors” (Monogram Biosciences, Inc., priority 2005, dated 2019)

Columns and labels:
Assay type in all cases: cell-based
Settings in all cases: share of samples designated hypersusceptible
[1] = tested on: HIV-1, RT mutations: T215Y and 2 TAMs and V118I; experiment: PhenoSense resistance test vector assay, clinical isolates with T215Y and 2 TAMs and V118I
Description: (§1) In preferred embodiments, the phenotypic analysis of NNRTI hypersusceptibility is performed using PHENOSENSE™ (ViroLogic Inc., South San Francisco, Calif.). See Petropoulos et al., 2000, Antimicrob. Agents Chemother. 44:920-928; U.S. Pat. Nos. 5,837,464 and 6,242,187. PHENOSENSE™ is a phenotypic assay that achieves the benefits of phenotypic testing and overcomes the drawbacks of previous assays. Because the assay has been automated, PHENOSENSE™ provides high throughput methods under controlled conditions for determining NNRTI resistance, susceptibility, or hypersusceptibility of a large number of individual viral isolates.
(§2) The assay can be performed by first co-transfecting host cells with RTV DNA and a plasmid that expresses the envelope proteins of another retrovirus, for example, amphotropic murine leukemia virus (MLV). Following transfection, viral particles can be harvested from the cell culture and used to infect fresh target cells in the presence of varying amounts of anti-viral drug(s). The completion of a single round of viral replication in the fresh target cells can be detected by the means for detecting replication contained in the vector. In a preferred embodiment, the completion of a single round of viral replication results in the production of luciferase. By monitoring the amount of, e.g., luciferase activity in the presence of the varying amounts of antiviral drug(s), a resistance curve can be constructed by plotting luciferase activity versus drug concentration. The susceptibility of an HIV, or population of HIV, can be determined by measuring the concentration of antiviral drug at which the luciferase activity detected is half-maximal. This number, the IC50, provides a standard and convenient measure of drug resistance.
(§3) Patient-derived segment(s) corresponding to the HIV protease and reverse transcriptase coding regions were amplified by the reverse transcription-polymerase chain reaction method (RT-PCR) using viral RNA isolated from viral particles present in the plasma or serum of HIV-infected individuals as follows. […]

HIV-1, RT mutations: 65R = experiment: PhenoSense resistance test vector assay, clinical isolates with 65R
Description: as §1
(§4) The assay can be performed by first co-transfecting host cells with RTV DNA and a plasmid that expresses the envelope proteins of another retrovirus, for example, amphotropic murine leukemia virus (MLV). Following transfection, viral particles can be harvested from the cell culture and used to infect fresh target cells in the presence of varying amounts of anti-viral drug(s). The completion of a single round of viral replication in the fresh target cells can be detected by the means for detecting replication contained in the vector. […] The susceptibility of an HIV, or population of HIV, can be determined by measuring the concentration of antiviral drug at which the luciferase activity detected is half-maximal. […]

[2] = tested on: HIV-1, RT mutations: T215Y and 2 TAMs and H208X; experiment: PhenoSense resistance test vector assay, clinical isolates with T215Y and 2 TAMs and H208X
Description: as §1, §2, §3

[3] = tested on: HIV-1, RT mutations: None; experiment: PhenoSense resistance test vector assay, clinical isolates without NRTI, NNRTI or PI mutations (WT reference group)
Description: as §1, §2, §3

[4] = tested on: HIV-1, RT mutations: T215Y and 2 TAMs; experiment: PhenoSense resistance test vector assay, clinical isolates with T215Y and 2 TAMs
Description: as §1, §4

[5] = tested on: HIV-1, RT mutations: 65R and 184V; experiment: PhenoSense resistance test vector assay, clinical isolates with 65R and 184V
Description: as §1, §4

**Q.** Which “% IC50 0.4 fold < WT” value [1] does the source give for `CC(C)Nc1cccnc1N1CCN(C(=O)c2cc3cc(NS(C)(=O)=O)ccc3[nH]2)CC1` [DLV, delavirdine] here?
**A.** 63.8%

**Q.** And the “% IC50 0.4 fold < WT” value (HIV-1, RT mutations: 65R)?
**A.** 44.4%

**Q.** And the “% IC50 0.4 fold < WT” value [2]?
**A.** 90.9%

**Q.** What about the “% IC50 0.4 fold < WT” value [3] of the same compound?
**A.** 4.9%

**Q.** And the “% IC50 0.4 fold < WT” value [4]?
**A.** 71.8%

**Q.** What about the “% IC50 0.4 fold < WT” value [5] of the same compound?
**A.** 42.7%

**Q.** What does the source list for `O=C1Nc2ccc(Cl)cc2[C@@](C#CC2CC2)(C(F)(F)F)O1` [EFV, efavirenz]?
**A.** % IC50 0.4 fold < WT [1]: 39.6%; % IC50 0.4 fold < WT [2]: 54.5%; % IC50 0.4 fold < WT [3]: 4.2%

**Q.** With `Cc1ccnc2c1NC(=O)c1cccnc1N2C1CC1` [NVP, nevirapine] as the compound, how does the “% IC50 0.4 fold < WT” value [1] read?
**A.** 27.1%

**Q.** What about the “% IC50 0.4 fold < WT” value (HIV-1, RT mutations: 65R) of the same compound?
**A.** 55.6%

**Q.** And the “% IC50 0.4 fold < WT” value [2]?
**A.** 9.1%

**Q.** What about the “% IC50 0.4 fold < WT” value [3] of the same compound?
**A.** 8.1%

**Q.** What about the “% IC50 0.4 fold < WT” value [4] of the same compound?
**A.** 31.3%

**Q.** And the “% IC50 0.4 fold < WT” value [5]?
**A.** 50.7%
